Reference: patent US12319655B2, “RAF kinase inhibitors and methods of use thereof” (Deciphera Pharmaceuticals, LLC, priority 2021, dated 2025)

What was measured:
A375 cells [1] = test: A375 Cell Proliferation Assay (1); type: cell-based; details: Homo sapiens, A-375
How it was run: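 Resazurin fluorescence (excitation 540 nm, emission 600 nm, after a further 5-6 h) gave IC50s from triplicate compound dilution series.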

[2] = target: A-Raf kinase (SEQ. ID No: 1) (Homo sapiens (Human), UniProt P10398, Y301D/Y302D); test: Biochemical Assay for A-Raf (1); details: Table J, biochemical assay (1); read-out: ARAF (1)
How it was run: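 A-Raf Y301D/Y302D at 5.55 nM phosphorylates 30.1 nM MEK with 1 mM ATP in pH 7.5 Tris buffer, 1% DMSO. Activity was read continuously as NADH oxidation at 340 nm in a pyruvate kinase/lactate dehydrogenase coupled system for 6 h at 30 °C. Rates from 4–5 h were converted to percent inhibition, and IC50 came from a four-parameter fit.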

WM3928 cells = test: WM3928 Cell Proliferation Assay (2); type: cell-based
Protocol: WM3928 Cell Proliferation Assay (2)
WM3928 cells (#WM3928-01-0001) are obtained from Rockland Immunochemicals Inc (Gilbertsville, PA). Briefly, cells were grown in MCDB 153 medium (Sigma, #M7403, St. Louis, MO) supplemented with 20% Leibovitz's L-15 (ThermoFisher #11415-064, Waltham, MA), 2% heat inactivated fetal bovine serum (ThermoFisher, #A3840001, Waltham, MA), 5 μg/mL Insulin (Bovine Pancreas) (Sigma, #10516, St. Louis, MO), 1.68 mM Calcium Chloride (Sigma, #C-34006, St. Louis, MO) and 1% Penicillin/Streptomycin/L-Glutamine (ThermoFisher #10378016, Waltham, MA) at 37° C., 5% CO2, and 95% humidity. Cells are expanded until reaching 70-95% confluency at which point they are sub-cultured or harvested for assay use. Using the Beckman Coulter Echo 650, a serial dilution of test compound is dispensed into a 384-well black clear bottom plate in triplicate. Seven hundred fifty cells are added per well in 50 μL complete growth medium in the 384-well plate. Plates are incubated for 67-72 hours at 37° C., 5% CO2, and 95% humidity. At the end of the incubation, 10 μL of a 440 μM solution of resazurin (Sigma, #199303, St. Louis, MO) in PBS is added to each well of the plate and plates are incubated for an additional 3-6 hours at 37° C., 5% CO2, and 95% humidity. Plates are read on a Synergy2 or equivalent reader (Biotek, Winooski VT) using an excitation of 540 nm and an emission of 600 nm. Data is analyzed using Prism software (GraphPad, San Diego, CA) to calculate IC50 values.

A375 cells [3] = test: A375 Cell Proliferation Assay (2); type: cell-based; details: Homo sapiens, A-375
Protocol: A375 Cell Proliferation Assay (2)
A375 cells (catalog (#CRL-1619) are obtained from the American Type Culture Collect (ATTC, Manassas, VA). Briefly, cells were grown in DMEM High Glucose supplemented with 10% characterized fetal bovine serum (Invitrogen, Carlsbad, CA) and 1% Penicillin/Streptomycin/L-Glutamine at 37° C., 5% CO2, and 95% humidity. Cells are expanded until reaching 70-95% confluency at which point they are sub-cultured or harvested for assay use. Using the Beckman Coulter Echo 650, a serial dilution of test compound is dispensed into a 384-well black clear bottom plate in triplicate. Six hundred twenty-five cells are added per well in 50 μL complete growth medium in the 384-well plate. Plates are incubated for 67-72 h at 37° C., 5% CO2, and 95% humidity. At the end of the incubation, 10 μL of a 440 μM solution of resazurin (Sigma, St. Louis, MO) in PBS is added to each well of the plate and plates are incubated for an additional 3-6 h at 37° C., 5% CO2, and 95% humidity. Plates are read on a Synergy2 or equivalent reader (Biotek, Winooski VT) using an excitation of 540 nm and an emission of 600 nm. Data is analyzed using Prism software (GraphPad, San Diego, CA) to calculate IC50 values.

Chain of A-Raf kinase (SEQ. ID No: 1) (P10398 other isoform, or with tags, fused parts or gaps Y301D (already in the parent)/Y302D (already in the parent)): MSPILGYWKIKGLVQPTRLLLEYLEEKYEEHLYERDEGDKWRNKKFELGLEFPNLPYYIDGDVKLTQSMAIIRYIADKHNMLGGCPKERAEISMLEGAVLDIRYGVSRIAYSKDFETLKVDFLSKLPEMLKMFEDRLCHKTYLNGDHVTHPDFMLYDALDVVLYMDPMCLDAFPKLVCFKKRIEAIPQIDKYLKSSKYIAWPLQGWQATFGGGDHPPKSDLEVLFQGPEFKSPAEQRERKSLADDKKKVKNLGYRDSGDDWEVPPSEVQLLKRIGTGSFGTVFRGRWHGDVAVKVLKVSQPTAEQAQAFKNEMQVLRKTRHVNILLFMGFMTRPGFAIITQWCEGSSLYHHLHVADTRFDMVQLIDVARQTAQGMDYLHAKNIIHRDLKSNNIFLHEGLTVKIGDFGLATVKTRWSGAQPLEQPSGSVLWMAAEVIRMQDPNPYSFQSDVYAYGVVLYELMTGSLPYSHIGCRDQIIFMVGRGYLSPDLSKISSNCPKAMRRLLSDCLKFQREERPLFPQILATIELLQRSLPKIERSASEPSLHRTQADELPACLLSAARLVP

SMILES	IC50 (A375 cells [1]) [nM]	IC50 [2] [nM]	IC50 (A375 cells [3]) [nM]	IC50 (WM3928 cells) [nM]
COC(=O)Nc1cc(-c2cccc(-c3cc(NC(=O)c4ccnc(C(C)(C)F)c4)cnc3C)c2)ncn1 [Example 404]	100 to 500	1000 to 10000		
Cc1ncc(NC(=O)c2ccnc(C(C)(C)F)c2)cc1-c1cncc(-c2cc(NC(=O)C3CC3)ncn2)c1 [Example 406]	≤ 100	500 to 1000		
CNC(=O)c1cc(-c2cncc(-c3cc(NC(=O)c4ccnc(C(C)(C)F)c4)c(F)cc3C)c2)ccn1 [Example 408]	100 to 500	1000 to 10000		
COC(=O)Nc1cc(-c2cnnc(-c3cc(NC(=O)c4cn(C(C)C)nn4)ccc3C)c2)ccn1 [Example 409]	1000 to 10000	1000 to 10000		
Cc1ccc(NC(=O)c2ccnc(C(C)(C)F)c2)cc1-c1cncc(-c2cc(N)ncn2)c1 [Example 411]	500 to 1000	1000 to 10000		
Cc1ccc(NC(=O)c2cn(C(C)C)nn2)cc1-c1cncc(-c2cc(NC(=O)C3CC3)ncn2)c1 [Example 412]	≤ 100	100 to 500		
COC(=O)Nc1cc(-c2cccc(-c3cc(NC(=O)Cn4cc(C(C)C)nn4)cnc3C)c2)ccn1 [Example 415]	1000 to 10000	1000 to 10000		
Cc1ccc(NC(=O)c2ccnc(C(C)(C)F)c2)cc1-c1cncc(-c2ccnc(NC(=O)C3CC3)c2)c1 [Example 417]	≤ 100	100 to 500		
Cc1ccc(NC(=O)c2ccnc(C(C)(F)F)c2)cc1-c1cncc(-c2cc(NC(=O)C3CC3)ncn2)c1 [Example 419]	≤ 100	500 to 1000		
Cc1ccc(NC(=O)c2ccnc(C(C)(C)C#N)c2)cc1-c1cncc(-c2cc(NC(=O)C(C)C)ncn2)c1 [Example 420]	≤ 100	1000 to 10000		
Cc1ccc(NC(=O)c2cc(C3CC3)on2)cc1-c1cncc(-c2cc(NC(=O)C3CC3)ncn2)c1 [Example 421]	≤ 100	1000 to 10000		
Cc1cc(F)c(NC(=O)c2ccnc(C(C)(C)F)c2)cc1-c1cncc(-c2cc(NC(=O)C3CC3)ncn2)c1 [Example 423]	≤ 100	1000 to 10000		
Cc1cc(F)c(NC(=O)c2ccnc(C(C)(C)C#N)c2)cc1-c1cncc(-c2cc(NC(=O)C3CC3)ncn2)c1 [Example 424]	≤ 100	500 to 1000		
COC(=O)Nc1cc(-c2cncc(-c3cc(NC(=O)c4ccnc(C(C)(C)F)c4)ccc3C)c2)ncn1 [Example 425]	≤ 100	1000 to 10000		
CNC(=O)c1cc(-c2nccc(-c3cc(NC(=O)c4ccnc(C(C)(C)F)c4)c(F)cc3C)n2)ccn1 [Example 427]	100 to 500	1000 to 10000		
Cc1ccc(NC(=O)c2ccnc(C(F)F)c2)cc1-c1cncc(-c2cc(NC(=O)C3CC3)ncn2)c1 [Example 429]	≤ 100	100 to 500		
Cc1ccc(NC(=O)c2cnn(C3CC3)c2)cc1-c1cncc(-c2cc(NC(=O)C3CC3)ncn2)c1 [Example 430]	100 to 500	500 to 1000		
Cc1ccc(NC(=O)c2cc(C(C)(C)C)on2)cc1-c1cncc(-c2cc(NC(=O)C3CC3)ncn2)c1 [Example 431]	≤ 100	100 to 500		
Cc1ccc(NC(=O)c2ccnc(C(C)(C)F)c2)cc1-c1cncc(-c2ccnc3c2CC(=O)N3)c1 [Example 432]	500 to 1000	1000 to 10000		
Cc1ncc(NC(=O)c2ccnc(C(C)(C)F)c2)cc1-c1cncc(-c2ccnc(NC(=O)C3CC3)c2)c1 [Example 433]	≤ 100	1000 to 10000		
Cc1ccc(NC(=O)c2ccnc(C(C)C)c2)cc1-c1cncc(-c2cc(NC(=O)C3CC3)ncn2)c1 [Example 434]	≤ 100	100 to 500		
Cc1ccc(NC(=O)c2cc(C3CC3)n(C)n2)cc1-c1nccc(-c2ccnc(NC(=O)C3CC3)c2)n1 [Example 436]	100 to 500	500 to 1000		
CNC(=O)c1cc(-c2cc(-c3cc(NC(=O)c4ccnc(C(C)(C)C#N)c4)ccc3OC)ccn2)ccn1 [Example 437]	1000 to 10000	1000 to 10000		
COc1ccc(NC(=O)c2ccnc(C(C)(C)C#N)c2)cc1-c1cccc(-c2cc(NC(=O)C3CC3)ncn2)c1 [Example 438]	≤ 100	1000 to 10000		
CNC(=O)c1cc(-c2cncc(-c3cc(NC(=O)c4ccnc(C(C)(F)F)c4)ccc3C)c2)ccn1 [Example 440]			100 to 500	≤ 100
CNC(=O)c1cc(-c2cc(-c3cc(NC(=O)c4ccnc(C(C)(F)F)c4)ccc3C)ccn2)ccn1 [Example 441]			≤ 100	≤ 100
CNC(=O)c1cc(-c2cc(-c3cc(NC(=O)c4ccnc(C(C)C)c4)ccc3C)ccn2)ccn1 [Example 443]			100 to 500	≤ 100
CNC(=O)c1cc(-c2cncc(-c3cc(NC(=O)c4ccnc(C(C)C)c4)ccc3C)c2)ccn1 [Example 445]			100 to 500	≤ 100
CNC(=O)c1cc(-c2cncc(-c3cc(NC(=O)c4ccnc(C(C)C)c4)ccc3C)c2)ncn1 [Example 446]			100 to 500	≤ 100
Cc1ccc(NC(=O)c2ccnc(C(C)(C)F)c2)cc1-c1ccnc(-c2ccnc(C#N)c2)c1 [Example 447]			1000 to 10000	500 to 1000

Further lines, with some results ahead:

IC50 (A375 cells [1]) [nM]	IC50 [2] [nM]	IC50 (A375 cells [3]) [nM]	SMILES	IC50 (WM3928 cells) [nM]
≤ 100	1000 to 10000		COC(=O)Nc1cc(-c2cncc(-c3cc(NC(=O)c4ccnc(C5(C#N)CC5)c4)ccc3C)c2)ncn1 [Example 405]	
1000 to 10000	1000 to 10000		Cc1ncc(NC(=O)c2ccnc(C(C)(C)C#N)c2)cc1-c1cccc(-c2cnc3ccccn23)c1 [Example 407]	
≤ 100	1000 to 10000		Cc1ncc(NC(=O)c2ccnc(C(C)(C)C#N)c2)cc1-c1cncc(-c2cc(NC(=O)C3CC3)ncn2)c1 [Example 410]	
≤ 100	1000 to 10000		CNC(=O)c1cc(-c2cncc(-c3cc(NC(=O)c4ccnc(C(C)(C)F)c4)ccc3C)c2)ccn1 [Example 413]	
≤ 100	1000 to 10000		COC(=O)Nc1cc(-c2cncc(-c3cc(NC(=O)c4ccnc(C(C)(C)C#N)c4)ccc3C)c2)ncn1 [Example 414]	
100 to 500	1000 to 10000		COC(=O)Nc1cc(-c2cc(-c3cc(NC(=O)c4ccnc(C(C)(C)F)c4)ccc3C)nc(C)n2)ccn1 [Example 416]	
≤ 100	500 to 1000		Cc1cc(F)c(NC(=O)c2ccnc(C(C)(C)C#N)c2)cc1-c1cncc(-c2ccnc(NC(=O)C3CC3)c2)c1 [Example 418]	
1000 to 10000	1000 to 10000		Cc1ccc(NC(=O)c2ccnc(C(C)(C)C#N)c2)cc1-c1cncc(-c2cc(N)ncn2)c1 [Example 422]	
100 to 500	1000 to 10000		CNC(=O)c1cc(-c2cc(-c3cc(NC(=O)c4ccnc(C(C)(C)F)c4)ccc3C)nc(C)n2)ccn1 [Example 428]	
≤ 100	1000 to 10000		COC(=O)Nc1cc(-c2cncc(-c3cc(NC(=O)c4ccnc(C(C)(C)F)c4)ccc3C)c2)ccn1 [Example 435]	
		100 to 500	CNC(=O)c1cc(-c2cncc(-c3cc(NC(=O)c4ccnc(C(C)(F)F)c4)ccc3C)c2)ncn1 [Example 439]	100 to 500
		≤ 100	CNC(=O)c1cc(-c2cncc(-c3cc(NC(=O)c4ccnc(C(C)(C)C#N)c4)ccc3C)c2)ccn1 [Example 442]	≤ 100
		100 to 500	CNC(=O)c1cc(-c2cc(-c3cc(NC(=O)c4ccnc(C(C)(C)F)c4)cnc3C)ccn2)ccn1 [Example 444]	100 to 500
		100 to 500	Cc1ccc(NC(=O)c2ccnc(C(C)(C)F)c2)cc1-c1ccnc(-c2ccnc(C(=O)NCCO)c2)c1 [Example 448]	≤ 100
		≤ 100	CNC(=O)c1cc(-c2cc(-c3cc(NC(=O)c4ccnc(C(C)(C)F)c4)ccc3C)cc(OCCO)n2)ccn1 [Example 449]	≤ 100
